Assay results from patent publication US20150231077A1, “AMINE PASSIVATED NANOPARTICLES FOR CANCER TREATMENT AND IMAGING” (THE CLEVELAND CLINIC FOUNDATION, priority 2014, published 2015).
“Also recorded” adds a separate entry of the source.

Tested on: human normal hematopoietic stem/progenitor cells (HSPCs)
Assay: Normal HSPC growth curves
Type: cell-based
Conditions: 1, 2 and 5 nM
Experimental: In order to evaluate the efficacy of Au:MTX in vitro, a human AML cell line THP-1 and human normal hematopoietic stem/progenitor cells (HSPCs) were used. HSPCs were isolated from umbilical cord blood via a CD34+ magnetic cell sorting (CD34 MicroBead Kit #130-046-702, Miltenyl Biotec, Auburn, Calif.). THP-1 cells were cultured in Roswell Park Memorial Institute 1640 (RPMI, Life Technologies, Carlsbad, Calif.) with 10% fetal bovine serum (FBS, Life Technologies), and HSPCs were cultured in Iscove's Modified Dulbecco's Medium (IMDM, Life Technologies) with 10% FBS and cytokines (10 ng/mL of SCF, TPO, and FLT3; 5 ng/mL of IL-3 and IL-6, PeproTech, Rockey Hill, N.J.), respectively, using 24-well cell culture plates with 0.7 mL of culture media per well (at 37° C. with 5% CO2 and >95% humidity). Cell viability was confirmed to be >95% using cell viability analyzer (Vi-Cell, Beckman Coulter, Brea, Calif.) immediately before the experiments. Then the cells were treated with phosphate buffer saline (PBS, Life Technologies), MTX, aqueous solutions of equimolar Au:MTX, and/or equimolar Au:FOL (folic acid-passivated Au nanoparticles). Cell cultures were split two-fold after 72 hours by replenishing each well with fresh media. Cell density and viability were measured every 24 hours using the cell viability analyzer. […]

Row | Structure (SMILES) | HSPC growth
1 | CN(Cc1cnc2nc(N)nc(N)c2n1)c1ccc(C(=O)N[C@@H](CCC(=O)O)C(=O)O)cc1 [MTX, methotrexate] | not significantly affected; also recorded: does not significantly affect

Tested on: not listed separately
Assay: Formation and TEM size of amine-passivated Au nanoparticles
Type: physicochemical
Conditions: size of the Au nanoparticle formed with the named amine compound as ligand, same synthesis conditions
Experimental: In a typical synthesis of water soluble nanoparticles Au:MTX, 5 μmol of HAuCl4 and 25 μmol of MTX were dispersed with brief sonication in 2 mL methanol in a tri-neck 15 mL flask on ice water (0° C.) bath under Ar purge. After 1 hour of stirring at 700 rpm, 0.5 mL of freshly prepared 0.11 M NaBH4 on ice was added drop-wise at 1200 rpm. After ˜1 hour, stirring speed was reduced to 700 rpm and kept for additional ˜30 minutes.
The reacted solution was centrifuged at 4° C. at 16,100×g for 15 minutes twice, with the addition of 4:1 (volume) mixture of methanol and water, and ethanol respectively. This set of two step centrifugation was repeated at least 3 times, and then the precipitate was re-dispersed in water to obtain aqueous solutions. The aqueous solution was further purified using 3 k ultra centrifugal filter (Millipore, Billerica, Mass.). […]

Row | Structure (SMILES) | nanoparticle (formation of monolayer-protected Au nanoparticles)
2 | Nc1ncnc2c1ncn2[C@@H]1O[C@H](COP(=O)(O)OP(=O)(O)OP(=O)(O)O)[C@@H](O)[C@H]1O [adenosine triphosphate] | 2.1 ± 0.7 nm
3 | Nc1ncnc2c1ncn2[C@@H]1O[C@H](CO)[C@@H](O)[C@H]1O [adenosine] | did not form
4 | Nc1nc2c(ncn2[C@@H]2O[C@H](COP(=O)(O)O)[C@@H](O)[C@H]2O)c(=O)[nH]1 [guanosine monophosphate] | 2.6 ± 1.0 nm
5 | Nc1nc2c(ncn2[C@@H]2O[C@H](COP(=O)(O)OP(=O)(O)OP(=O)(O)O)[C@@H](O)[C@H]2O)c(=O)[nH]1 [guanosine triphosphate] | 2.3 ± 0.7 nm
6 | NCCc1ccc(O)c(O)c1 [dopamine, reference compound] | did not form
7 | COC(=O)CCC(NC(=O)c1ccc(N(C)Cc2cnc3nc(N)nc(N)c3n2)cc1)C(=O)OC (stereo not drawn) [methotrexate dimethyl ester] | 2.2 ± 0.6 nm
8 | CN(Cc1cnc2nc(N)nc(N)c2n1)c1ccc(C(=O)N[C@@H](CCC(=O)O)C(=O)O)cc1 [MTX, methotrexate] | 2.6 ± 0.7 nm
9 | Nc1ncnc2c1ncn2[C@@H]1O[C@H](COP(=O)(O)O)[C@@H](O)[C@H]1O [adenosine monophosphate] | did not form
10 | Nc1nc2c(ncn2[C@@H]2O[C@H](COP(=O)(O)OP(=O)(O)O)[C@@H](O)[C@H]2O)c(=O)[nH]1 [guanosine diphosphate] | 2.4 ± 1.0 nm
11 | Cc1ncc(C[n+]2csc(CCOP(=O)(O)OP(=O)(O)O)c2C)c(N)n1 [thyamine pyrophosphate] | 3.1 ± 1.3 nm
12 | COc1cccc2c1C(=O)c1c(O)c3c(c(O)c1C2=O)C[C@@](O)(C(=O)CO)C[C@@H]3O[C@H]1C[C@H](N)[C@H](O)[C@H](C)O1 [doxorubicin, reference compound] | 3.3 ± 1.2 nm
13 | Nc1ccn([C@H]2C[C@H](O)[C@@H](CO)O2)c(=O)n1 [deoxycytidine] | did not form
14 | Nc1ncnc2c1ncn2[C@@H]1O[C@H](COP(=O)(O)OP(=O)(O)O)[C@@H](O)[C@H]1O [adenosine diphosphate] | 2.3 ± 0.7 nm
15 | Nc1nc2c(ncn2[C@@H]2O[C@H](CO)[C@@H](O)[C@H]2O)c(=O)[nH]1 [guanosine] | 2.7 ± 1.6 nm
16 | Nc1ccn([C@@H]2O[C@H](COP(=O)(O)OP(=O)(O)O)[C@@H](O)[C@H]2O)c(=O)n1 [cytidine diphosphate] | 2.5 ± 0.8 nm
17 | Cc1ncc(C[n+]2csc(CCO)c2C)c(N)n1 [thiamine] | did not form
18 | Nc1nc2c(ncn2[C@H]2C[C@H](O)[C@@H](CO)O2)c(=O)[nH]1 [deoxyguanosine] | did not form
19 | Nc1ncnc2c1ncn2[C@H]1C[C@H](O)[C@@H](CO)O1 [deoxyadenosine] | did not form
20 | Nc1nc2ncc(CNc3ccc(C(=O)N[C@@H](CCC(=O)O)C(=O)O)cc3)nc2c(=O)[nH]1 [folic acid] | 2.6 ± 1.1 nm
21 | Cc1cc2nc3c(=O)[nH]c(=O)nc-3n(C[C@H](O)[C@H](O)[C@H](O)COP(=O)(O)OP(=O)(O)OC[C@H]3O[C@@H](n4cnc5c(N)ncnc54)[C@H](O)[C@@H]3O)c2cc1C [flavin adenine dinucleotide (FAD), flavin adenine dinucleotide] | 4.2 ± 1.6 nm
22 | [H]/N=C(/N)N[C@H]1[C@H](O)[C@@H](O)[C@H](O[C@@H]2O[C@@H](C)[C@](O)(C=O)[C@H]2O[C@@H]2O[C@@H](CO)[C@H](O)[C@@H](O)[C@@H]2NC)[C@@H](N/C(N)=N\[H])[C@@H]1O [streptomycin, reference compound] | 2.5 ± 1.2 nm
23 | NCCCC[C@H](N)C(=O)O [lysine] | did not form
24 | CSCC[C@H](N)C(=O)O [methionine] | did not form
25 | Nc1ccn([C@@H]2O[C@H](COP(=O)(O)O)[C@@H](O)[C@H]2O)c(=O)n1 [cytidine monophosphate] | 4.5 ± 2.8 nm
26 | Nc1ccn([C@@H]2O[C@H](COP(=O)(O)OP(=O)(O)OP(=O)(O)O)[C@@H](O)[C@H]2O)c(=O)n1 [cytidine triphosphate] | 2.6 ± 0.9 nm

Tested on: human AML cell line THP-1
Assay: THP-1 growth curves (cell density and viability)
Type: cell-based
Conditions: 1, 2 and 5 nM
Experimental: In order to evaluate the efficacy of Au:MTX in vitro, a human AML cell line THP-1 and human normal hematopoietic stem/progenitor cells (HSPCs) were used. HSPCs were isolated from umbilical cord blood via a CD34+ magnetic cell sorting (CD34 MicroBead Kit #130-046-702, Miltenyl Biotec, Auburn, Calif.). […] Cell density and viability were measured every 24 hours using the cell viability analyzer. […]
The inventors characterized Au:MTX as drug delivery vehicles and evaluated in vitro therapeutic effects. Au:MTX was purified via sets of centrifugal precipitations, and the Au-to-MTX molar ratio (drug loading onto Au nanoparticle) was measured by elemental analyses (carbon-hydrogen-nitrogen analysis, or CHN; and inductively coupled plasma mass spectrometry, or ICP-MS). […] Au-to-MTX molar ratio was determined as [Au]:[MTX]=9.8:1, i.e. one nanoparticle on average carried ˜75 MTX molecules (assuming ˜1.44 Å as atomic radius of Au and uniform surface coverage, as illustrated in FIG. 1(c)). […] Drug delivery by Au:MTX was evaluated using a human AML cell line THP-1. […] Au:FOL, with the diameter 2.6±1.1 nm measured by TEM, is structurally similar to Au:MTX and was therefore used as an “Au nanoparticle without active drug” control. […]

Row | Structure (SMILES) | THP-1 cell growth
27 | CN(Cc1cnc2nc(N)nc(N)c2n1)c1ccc(C(=O)N[C@@H](CCC(=O)O)C(=O)O)cc1 [MTX, methotrexate] | dose-dependent THP-1 growth suppression
